The structures appear in SMILES notation. A value given as a limit tells only on which side of the number the result lay.

The subject of the experiment is SH-SY5Y M-currents (KCNQ2, KCNQ3 and KCNQ5). Briefly: SH-SY5Y native cell line FLIPR assay (voltage-sensitive dye DiBAC). In kind it is cell-based, mouse neuroblastoma, rat glioma hybrid cell line. To be noted: FLIPR assay, SH-SY5Y native cell line; Table 2; read-out: SH-SY5Y EC50. The essentials:
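Response is peak DiBAC fluorescence change, normalised to the maximum from a positive control agent, sampled every 30 s over 25 min. Before compound addition, SH-SY5Y cells differentiated with PGE1 plus isomethylbutylxanthine were dye-loaded for 1 h in EBSS with […] DiBAC.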
Consider `O=C(Cc1ccc(F)cc1)Nc1nc2ccc(F)cn2c1-c1ccc(OC(F)(F)F)c(F)c1` [Compound 296, N-(6-fluoro-3-(3-fluoro-4-(trifluoromethoxy)phenyl)imidazo[1,2-a]pyridin-2-yl)-2-(4-fluorophenyl)acetamide], for which the EC50 (commonly the concentration giving half of the maximal effect) was less than 500 nM.

As for `O=C(Cc1ccc(C(F)(F)F)cc1)Nc1nc2ccc(F)cn2c1-c1ccc(OC(F)(F)F)c(F)c1` [Compound 297, N-(6-fluoro-3-(3-fluoro-4-(trifluoromethoxy)phenyl)imidazo[1,2-a]pyridin-2-yl)-2-(4-(trifluoromethyl)phenyl)acetamide], the EC50 is less than 500 nM.

Turning to `O=C(Cc1cccc(Cl)c1)Nc1nc2ccc(F)cn2c1-c1ccc(OC(F)(F)F)c(F)c1` [Compound 298, 2-(3-chlorophenyl)-N-(6-fluoro-3-(3-fluoro-4-(trifluoromethoxy)phenyl)imidazo[1,2-a]pyridin-2-yl)acetamide], the EC50 is less than 500 nM.

For `O=C(Cc1ccc(C(F)(F)F)cc1)Nc1nc2ccc(F)cn2c1-c1cccc(Cl)c1` [Compound 299, N-(3-(3-chlorophenyl)-6-fluoroimidazo[1,2-a]pyridin-2-yl)-2-(4-(trifluoromethyl)phenyl)acetamide], the EC50 was 500 to 3000 nM.

Consider `O=C(Cc1cccc(Cl)c1)Nc1nc2ccc(F)cn2c1-c1cccc(Cl)c1` [Compound 300, 2-(3-chlorophenyl)-N-(3-(3-chlorophenyl)-6-fluoroimidazo[1,2-a]pyridin-2-yl)acetamide], for which the EC50 was less than 500 nM.

For the compound `O=C(Cc1ccc(Cl)cc1)Nc1nc2ccc(F)cn2c1-c1cccc(Cl)c1` [Compound 301, 2-(4-chlorophenyl)-N-(3-(3-chlorophenyl)-6-fluoroimidazo[1,2-a]pyridin-2-yl)acetamide], the concentration giving a half-maximal response (EC50) is less than 500 nM.

For `O=C(CC1CCCC1)Nc1nc2ccc(F)cn2c1-c1cccc(Cl)c1` [Compound 302, N-(3-(3-chlorophenyl)-6-fluoroimidazo[1,2-a]pyridin-2-yl)-2-cyclopentylacetamide], the EC50 was less than 500 nM.

For `O=C(CCC(F)(F)F)Nc1nc2ccc(F)cn2c1-c1ccc(OC(F)(F)F)c(F)c1` [Compound 303, 4,4,4-trifluoro-N-(6-fluoro-3-(3-fluoro-4-(trifluoromethoxy)phenyl)imidazo[1,2-a]pyridin-2-yl)butanamide], the EC50 was 500 to 3000 nM.

In the case of `CC1(CC(=O)Nc2nc3ccc(F)cn3c2-c2ccc(OC(F)(F)F)c(F)c2)CCCC1` [Compound 304, N-(6-fluoro-3-(3-fluoro-4-(trifluoromethoxy)phenyl)imidazo[1,2-a]pyridin-2-yl)-2-(1-methylcyclopentyl)acetamide], the EC50 was less than 500 nM.

Consider `Cc1ccc2nc(NC(=O)CC(C)(C)C)c(-c3cccc(OC(F)(F)F)c3)n2n1` [Compound 305, 3,3-dimethyl-N-(6-methyl-3-(3-(trifluoromethoxy)phenyl)imidazo[1,2-b]pyridazin-2-yl)butanamide], for which the EC50 is less than 500 nM.

As for `Cc1ccc2nc(NC(=O)Cc3ccc(F)cc3)c(-c3cccc(OC(F)(F)F)c3)n2n1` [Compound 306, 2-(4-fluorophenyl)-N-(6-methyl-3-(3-(trifluoromethoxy)phenyl)imidazo[1,2-b]pyridazin-2-yl)acetamide], the EC50 was less than 500 nM.

As for `COc1ccn2c(-c3ccc(C(F)(F)F)cc3)c(NC(=O)CC(F)(F)F)nc2c1` [Compound 307, 3,3,3-trifluoro-N-(7-methoxy-3-(4-(trifluoromethyl)phenyl)imidazo[1,2-a]pyridin-2-yl)propanamide], the EC50 is 3000 to 10000 nM.

For `Cc1ccc2nc(NC(=O)Cc3ccc(F)cc3)c(-c3cccc(C(F)(F)F)c3)n2n1` [Compound 309, 2-(4-fluorophenyl)-N-(6-methyl-3-(3-(trifluoromethyl)phenyl)imidazo[1,2-b]pyridazin-2-yl)acetamide], the EC50 is less than 500 nM.

On to `O=C(Cc1ccc(Cl)cc1)Nc1nc2ccc(F)cn2c1-c1ccc(OC(F)(F)F)c(F)c1` [Compound 310, 2-(4-chlorophenyl)-N-(6-fluoro-3-(3-fluoro-4-(trifluoromethoxy)phenyl)imidazo[1,2-a]pyridin-2-yl)acetamide], for which the half-maximal effective concentration (EC50) is less than 500 nM.

On to `O=C(CC1CCCC1)Nc1nc2ccc(F)cn2c1-c1ccc(OC(F)(F)F)c(F)c1` [Compound 311, 2-cyclopentyl-N-(6-fluoro-3-(3-fluoro-4-(trifluoromethoxy)phenyl)imidazo[1,2-a]pyridin-2-yl)acetamide], for which the concentration for a half-maximal effect (EC50) is less than 500 nM.

Consider `CC(C)C(C)C(=O)Nc1nc2ccc(F)cn2c1-c1ccc(OC(F)(F)F)c(F)c1` (stereo not shown) [Compound 312, N-(6-fluoro-3-(3-fluoro-4-(trifluoromethoxy)phenyl)imidazo[1,2-a]pyridin-2-yl)-2,3-dimethylbutanamide], for which the half-maximal effective concentration (EC50) was less than 500 nM.

With `CC(CC(=O)Nc1nc2ccc(F)cn2c1-c1ccc(OC(F)(F)F)c(F)c1)C(F)(F)F` (stereo not shown) [Compound 313, 4,4,4-trifluoro-N-(6-fluoro-3-(3-fluoro-4-(trifluoromethoxy)phenyl)imidazo[1,2-a]pyridin-2-yl)-3-methyl butanamide], the EC50 is less than 500 nM.

In the case of `CC(C)C(C)C(=O)Nc1nc2ccc(F)cn2c1-c1cccc(Cl)c1` (stereo not shown) [Compound 314, N-(3-(3-chlorophenyl)-6-fluoroimidazo[1,2-a]pyridin-2-yl)-2,3-dimethylbutanamide], the half-maximal effective concentration (EC50) is less than 500 nM.

For `CC(CC(=O)Nc1nc2ccc(F)cn2c1-c1cccc(Cl)c1)C(F)(F)F` (stereo not shown) [Compound 315, N-(3-(3-chlorophenyl)-6-fluoroimidazo[1,2-a]pyridin-2-yl)-4,4,4-trifluoro-3-methylbutanamide], the EC50 was 500 to 3000 nM.

In the case of `O=C(Cc1ccc(F)cc1)Nc1nc2ncc(Cl)cn2c1-c1ccc(C(F)(F)F)cc1` [Compound 317, N-(6-chloro-3-(4-(trifluoromethyl)phenyl)imidazo[1,2-a]pyrimidin-2-yl)-2-(4-fluorophenyl)acetamide], the EC50 is 500 to 3000 nM.

Turning to `CC(CC(=O)Nc1nc2ncc(Cl)cn2c1-c1ccc(C(F)(F)F)cc1)C(F)(F)F` (stereo not shown) [Compound 318, N-(6-chloro-3-(4-(trifluoromethyl)phenyl)imidazo[1,2-a]pyrimidin-2-yl)-4,4,4-trifluoro-3-methylbutanamide], the EC50 lay within 500 to 3000 nM.

In the case of `CC(C)(C)CC(=O)Nc1nc2ncc(Cl)cn2c1-c1cccc(Cl)c1` [Compound 319, N-(6-chloro-3-(3-chlorophenyl)imidazo[1,2-a]pyrimidin-2-yl)-3,3-dimethylbutanamide], the EC50 was 3000 to 10000 nM.

In the case of `O=C(Cc1ccc(F)cc1)Nc1nc2ncc(Cl)cn2c1-c1cccc(Cl)c1` [Compound 320, N-(6-chloro-3-(3-chlorophenyl)imidazo[1,2-a]pyrimidin-2-yl)-2-(4-fluorophenyl) acetamide], the EC50 fell in the range of 3000 to 10000 nM.

For the compound `CC(CC(=O)Nc1nc2ncc(Cl)cn2c1-c1cccc(Cl)c1)C(F)(F)F` (stereo not shown) [Compound 321, N-(6-chloro-3-(3-chlorophenyl)imidazo[1,2-a]pyrimidin-2-yl)-4,4,4-trifluoro-3-methylbutanamide], the EC50 fell in the range of 3000 to 10000 nM.

Take `CC(C)(C)CC(=O)Nc1nc2ncc(Cl)cn2c1-c1ccc(C(F)(F)F)cc1` [Compound 322, N-(6-chloro-3-(4-(trifluoromethyl)phenyl)imidazo[1,2-a]pyrimidin-2-yl)-3,3-dimethylbutanamide]: the EC50 fell in the range of 3000 to 10000 nM.

The values above are taken from patent US9018208B2, “Heterocycles as potassium channel modulators” (Icagen Inc., priority 2007, dated 2015).
